Patent US8791108B2, “Inhibitors of human immunodeficiency virus replication” (priority 2011, dated 2014)
Like-named read-outs stand apart in the source and are kept apart here.

Tested on: recombinant NL-Rluc virus
Test: Inhibition of HIV replication (NL-RLuc luciferase reporter virus, MT-2 cells)
Type: cell-based
Conditions: Human immunodeficiency virus 1, MT2, 120 h

Structure (SMILES) | EC50 (read-out: Activity) [µM] | EC50 (read-out: EC50 μM) [µM]
Cc1nc2cc(C(=O)N3CCN(c4ccccc4)CC3)nn2c(-c2cc(F)c3c(c2C)CCCO3)c1[C@H](OC(C)(C)C)C(=O)O [Example 93, (2S)-2-(tert-butoxy)-2-(7-(8-fluoro-5-methylchroman-6-yl)-5-methyl-2-(4-phenylpiperazine-1-carbonyl)pyrazolo[1,5-a]pyrimidin-6-yl)acetic acid] | < 0.1 | –
Cc1nc2cc(C(=O)NCc3ccco3)nn2c(-c2cc(F)c3c(c2C)CCCO3)c1[C@H](OC(C)(C)C)C(=O)O [Example 38, (2S)-2-(tert-butoxy)-2-(7-(8-fluoro-5-methylchroman-6-yl)-2-((furan-2-ylmethyl)carbamoyl)-5-methylpyrazolo[1,5-a]pyrimidin-6-yl)acetic acid] | 0.1 to 1 | 0.167
Cc1cccc(CN(C)C(=O)c2cc3nc(C)c([C@H](OC(C)(C)C)C(=O)O)c(-c4cc(F)c5c(c4C)CCCO5)n3n2)c1 [Example 20, (2S)-2-(tert-butoxy)-2-(7-(8-fluoro-5-methylchroman-6-yl)-5-methyl-2-(methyl(3-methylbenzyl)carbamoyl)pyrazolo[1,5-a]pyrimidin-6-yl)acetic acid] | < 0.1 | –
Cc1ccc(CN(C)C(=O)c2cc3nc(C)c([C@H](OC(C)(C)C)C(=O)O)c(-c4cc(F)c5c(c4C)CCCO5)n3n2)cc1 [Example 32, (2S)-2-(tert-butoxy)-2-(7-(8-fluoro-5-methylchroman-6-yl)-5-methyl-2-(methyl(4-methylbenzyl)carbamoyl)pyrazolo[1,5-a]pyrimidin-6-yl)acetic acid] | < 0.1 | –
Cc1nc2cc(C(=O)N(C)CCc3ccccc3)nn2c(-c2cc(F)c3c(c2C)CCCO3)c1[C@H](OC(C)(C)C)C(=O)O [Example 96, (2S)-2-(tert-butoxy)-2-(7-(8-fluoro-5-methylchroman-6-yl)-5-methyl-2-(methyl(phenethyl)carbamoyl)pyrazolo[1,5-a]pyrimidin-6-yl)acetic acid] | < 0.1 | 0.077
Cc1nc2cc(C(=O)NCCOC(C)(C)C)nn2c(-c2cc(F)c3c(c2C)CCCO3)c1[C@H](OC(C)(C)C)C(=O)O [Example 103, (2S)-2-(tert-butoxy)-2-(2-((2-(tert-butoxy)ethyl)carbamoyl)-7-(8-fluoro-5-methylchroman-6-yl)-5-methylpyrazolo[1,5-a]pyrimidin-6-yl)acetic acid] | 0.1 to 1 | 0.073
CCN1CCN(C(=O)c2cc3nc(C)c([C@H](OC(C)(C)C)C(=O)O)c(-c4cc(F)c5c(c4C)CCCO5)n3n2)CC1 [Example 83, (2S)-2-(tert-butoxy)-2-(2-(4-ethylpiperazine-1-carbonyl)-7-(8-fluoro-5-methylchroman-6-yl)-5-methylpyrazolo[1,5-a]pyrimidin-6-yl)acetic acid] | > 1 | –
Cc1nc2cc(C(=O)NCC34C[C@H]5C[C@@H](C3)C[C@@H](C4)C5)nn2c(-c2cc(F)c3c(c2C)CCCO3)c1[C@H](OC(C)(C)C)C(=O)O [Example 126, (2S)-2-(2-(((3S,5S,7S)-adamantan-1-ylmethyl)carbamoyl)-7-(8-fluoro-5-methylchroman-6-yl)-5-methylpyrazolo[1,5-a]pyrimidin-6-yl)-2-(tert-butoxy)acetic acid] | < 0.1 | –
Cc1nc2cc(C(=O)N(Cc3ccccc3)C(C)C)nn2c(-c2cc(F)c3c(c2C)CCCO3)c1[C@H](OC(C)(C)C)C(=O)O [Example 113, (2S)-2-(2-(benzyl(isopropyl)carbamoyl)-7-(8-fluoro-5-methylchroman-6-yl)-5-methylpyrazolo[1,5-a]pyrimidin-6-yl)-2-(tert-butoxy)acetic acid] | < 0.1 | –
Cc1nc2cc(C(=O)NCc3ccc(C#N)cc3)nn2c(-c2cc(F)c3c(c2C)CCCO3)c1[C@H](OC(C)(C)C)C(=O)O [Example 121, (2S)-2-(tert-butoxy)-2-(2-((4-cyanobenzyl)carbamoyl)-7-(8-fluoro-5-methylchroman-6-yl)-5-methylpyrazolo[1,5-a]pyrimidin-6-yl)acetic acid] | 0.1 to 1 | –
Cc1nc2cc(C(=O)N3CCN(c4ccc(F)cc4)CC3)nn2c(-c2cc(F)c3c(c2C)CCCO3)c1[C@H](OC(C)(C)C)C(=O)O [Example 87, (2S)-2-(tert-butoxy)-2-(7-(8-fluoro-5-methylchroman-6-yl)-2-(4-(4-fluorophenyl)piperazine-1-carbonyl)-5-methylpyrazolo[1,5-a]pyrimidin-6-yl)acetic acid] | < 0.1 | –
Cc1nc2cc(C(=O)NCCC3CCCN3C)nn2c(-c2cc(F)c3c(c2C)CCCO3)c1[C@H](OC(C)(C)C)C(=O)O (stereo partly drawn) [Example 74, (2S)-2-(tert-butoxy)-2-(7-(8-fluoro-5-methylchroman-6-yl)-5-methyl-2-((2-(1-methylpyrrolidin-2-yl)ethyl)carbamoyl)pyrazolo[1,5-a]pyrimidin-6-yl)acetic acid] | > 1 | –
Cc1nc2cc(C(=O)NCc3ccc(F)cc3S(C)(=O)=O)nn2c(-c2cc(F)c3c(c2C)CCCO3)c1[C@H](OC(C)(C)C)C(=O)O [Example 28, (2S)-2-(tert-butoxy)-2-(2-((4-fluoro-2-(methylsulfonyl)benzyl)carbamoyl)-7-(8-fluoro-5-methylchroman-6-yl)-5-methylpyrazolo[1,5-a]pyrimidin-6-yl)acetic acid] | 0.1 to 1 | –
COc1cc(CNC(=O)c2cc3nc(C)c([C@H](OC(C)(C)C)C(=O)O)c(-c4cc(F)c5c(c4C)CCCO5)n3n2)ccc1F [Example 35, (2S)-2-(tert-butoxy)-2-(2-((4-fluoro-3-methoxybenzyl)carbamoyl)-7-(8-fluoro-5-methylchroman-6-yl)-5-methylpyrazolo[1,5-a]pyrimidin-6-yl)acetic acid] | < 0.1 | –
Cc1nc2cc(C(=O)NCC3CCCO3)nn2c(-c2cc(F)c3c(c2C)CCCO3)c1[C@H](OC(C)(C)C)C(=O)O (stereo partly drawn) [Example 77, (2S)-2-(tert-butoxy)-2-(7-(8-fluoro-5-methylchroman-6-yl)-5-methyl-2-(((tetrahydrofuran-2-yl)methyl)carbamoyl)pyrazolo[1,5-a]pyrimidin-6-yl)acetic acid] | 0.1 to 1 | –
